Values after ≈ are worked out from the molar mass of the structure shown. Read-outs that look alike come from different tables or passages of the source.
Key:
[1] = molecular target: PDI (Homo sapiens, UniProt P07237); assay: Enzymatic assay for inhibition of PDI using insulin as substrate; type: biochemical
[2] = system: PC12 mHTTQ103 cells; assay: Rescue of PC12 cells from mHTTQ103-induced cell death; type: cell-based, rat; details: for EC50: Rattus norvegicus
[3] = molecular target: T1, human catalytic PDI A1 a domain (PDIa) (Homo sapiens, UniProt P07237); assay: Isothermal titration calorimetry (ITC) binding to PDIa
T1 construct: made in house; host or cells: Escherichia coli BL21-Gold (DE3)
T1 sequence (P07237 18-134): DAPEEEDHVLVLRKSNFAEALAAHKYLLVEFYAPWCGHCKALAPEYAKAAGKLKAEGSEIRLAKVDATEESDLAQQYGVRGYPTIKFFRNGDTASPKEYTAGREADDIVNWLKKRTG

[4] = Solubility (stock solvent)
[5] = system: uninduced PC12 cells not expressing mHTTQ103; assay: General cell toxicity in PC12 cell culture assay; type: cell-based
Description: Neuroprotection was assessed by each compound's ability to rescue cells from mutant-huntingtin-induced cell death (“Ind Q103” cells; blue). General cell toxicity of each compound was assessed in uninduced cells not expressing mutant-huntingtin protein (“Unind Q103” cells; red). NMP, DMSO, LOC14 in NMP and LOC14 in DMSO were used as controls.
Data from cells induced to express mHTT^Q103 (blue) and cells not expressing mHTT^Q103 (red) are plotted as mean percent of DMSO-treated uninduced cells±SD with n=3.
The follow-up testing of primary screen hits was performed in a similar way. Fresh powder stocks of primary hits were re-ordered from vendors, dissolved in DMSO and tested in a two-fold serial dilution across 10 wells in both tebufenozide-induced and uninduced PC12 mHTT^Q103 cells. Dose-response curves were plotted as mean±SD and fit to either four-parameter sigmoidal (for uninduced cells) or bell-shaped (induced) function using Prism (GraphPad Software).

[6] = physchem; details: organic solvent or mixture
[7] = molecular target: T2, 15N-labeled PDIa (Homo sapiens, UniProt P07237); assay: 1H-15N HSQC NMR of PDIa; type: binding
T2 construct: His6 (N, cleaved yes); made in house; host or cells: Escherichia coli BL21-Gold (DE3), M9 minimal medium with 15NH4Cl
T2 sequence (P07237 18-134): as above
Description: The ^1H-^15N HSQC spectra were performed on Bruker Avance III 500 Ascend (500 MHz) spectrometers at 300 K. The uniformly ^15N-labeled PDIa was dissolved at 50 μM or 100 μM in 90% H2O/10% D20 (v/v), pH 5.1. The ^1H carrier frequency was positioned at the water resonance. The ^15N carrier frequency was positioned at 115 ppm. The spectral width in the ^1H dimension was 7500 Hz and the width in ω1 (^15N) dimension was 1824.6 Hz. Suppression of water signal was accomplished using the WATERGATE sequence. Heteronuclear decoupling was accomplished using GARP decoupling scheme.

[8] = rescue from mHTTQ103 induced cell death
[9] = Tables 5-13, solvent not given (DMSO in Table 1)
[10] = PC-12, Tables 5-13, PC12 cells, read-out: EC50
[11] = PC-12, rescue from mHTTQ103 induced cell death, read-out: PC12 cells EC50
[12] = N/A = not active, read-out: ITC KD
[13] = Tables 5-13, NA = not active, read-out: Kd
[14] = FIG. 1, PDI A1a titrated into compound in 0.8% NMP, read-out: Kd1

Sequence of PDI (P07237 18-508): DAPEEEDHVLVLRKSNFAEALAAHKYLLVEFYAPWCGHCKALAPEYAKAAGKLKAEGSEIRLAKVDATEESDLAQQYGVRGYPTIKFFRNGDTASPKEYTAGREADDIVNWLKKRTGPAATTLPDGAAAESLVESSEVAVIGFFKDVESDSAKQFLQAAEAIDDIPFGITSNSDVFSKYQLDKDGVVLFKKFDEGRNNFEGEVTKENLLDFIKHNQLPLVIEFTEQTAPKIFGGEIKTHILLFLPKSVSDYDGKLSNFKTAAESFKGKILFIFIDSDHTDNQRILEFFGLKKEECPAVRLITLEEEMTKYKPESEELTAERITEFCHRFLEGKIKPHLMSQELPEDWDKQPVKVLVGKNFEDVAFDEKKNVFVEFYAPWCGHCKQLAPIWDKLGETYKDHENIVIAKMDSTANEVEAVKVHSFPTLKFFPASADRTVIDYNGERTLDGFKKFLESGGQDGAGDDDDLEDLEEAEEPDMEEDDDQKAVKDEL

| SMILES | inhibition of enzymatic (reductase) activity of PDI [1] | Max Viability (%) ([2]; Tables 5-13, PC12 cells) | PC12 cells Max % Viability [2, 8] [%] | toxicity in PC12 cell culture assay [5] | Solubility [4] [mM in DMSO] | EC50 [2, 10] [nM] | binding to PDI by ITC [3] | ITC KD ([3]; N/A = not active) | Solubility [6] [mM] | EC50 [2, 11] [nM] | Kd [3, 12] [nM] | Kd [3, 13] [nM] | also measured |
| --- | --- | --- | --- | --- | --- | --- | --- | --- | --- | --- | --- | --- | --- |
| O=c1c2ccccc2sn1-c1ccccc1 [LC-24] | did not inhibit PDI's reductase activity | 31 | 30.83 |  |  |  |  |  |  |  |  |  | EC50 ([2]; PC-12): 1130 nM; EC50 ([2]; PC-12, read-out: PC12 cells EC50): 1130 nM; Kd ([3]; Tables 6, 11, 12, read-out: Kd (nM), first value of two-site binding): 8 nM; Kd ([3]; Tables 6, 11, 12, read-out: Kd (nM), second value of two-site binding): 1140 nM; Kd ([3]; read-out: KD2): 1140 nM |
| Cc1ccc(-n2sc3ccccc3c2=O)c(Br)c1 [LC-36] | did not inhibit PDI's reductase activity | 15 |  |  |  |  |  |  |  |  |  |  | Solubility [4, 9]: 100 mM (≈ 32 mg/mL); Kd ([3]; read-out: KD2): 25 nM |
| O=c1[nH]sc2c(F)cccc12 [LC-40, 7-fluorobenzo[d]isothiazol-3(2H)-one] | able to inhibit the enzymatic activity of PDI | 72 | 72.31 | decreased cellular toxicity | 100 | 9320 | showed no binding to the protein by ITC | KD = N/A irreversible or not active |  |  |  |  | Solubility [4, 9]: 100 mM (≈ 16.9 mg/mL) |
| Cc1cc(C)c2c(=O)[nH]sc2n1 [LC-50] |  | 65 | 65.19 | complete loss of toxicity | 100 | 5180 |  |  | 100 (≈ 18 mg/mL) | 5180 | 3830 | 3830 |  |
| Cc1nc2s[nH]c(=O)c2c(C)c1C [LC-51] | did inhibit the enzymatic activity of PDI | 63 | 63.14 | complete loss of toxicity |  | 2200 | could not be detected by ITC | KD = N/A irreversible or not active |  |  |  |  | chemical shift changes in PDIa (1H-15N HSQC) [7]: induced the same chemical shifts in PDI as LOC14 |
| Cc1nc2sn(CN3CCN(C(=O)C4CC4)CC3)c(=O)c2c(C)c1C [LC-52] | did inhibit the enzymatic activity of PDI | 68 | 68.30 | complete loss of toxicity |  | 3570 | could not be detected by ITC | KD = N/A irreversible or not active |  |  |  |  | chemical shift changes in PDIa (1H-15N HSQC) [7]: induced the same chemical shifts in PDI as LOC14 |
| Cc1cc(C)c2c(=O)n(CN3CCN(C(=O)C4CC4)CC3)sc2n1 [LC-53] | did inhibit the enzymatic activity of PDI | 67 | 67.25 | complete loss of toxicity |  | 4250 | could not be detected by ITC | KD = N/A irreversible or not active |  | 4250 |  |  | chemical shift changes in PDIa (1H-15N HSQC) [7]: induced the same chemical shifts in PDI as LOC14 |
| Cc1nnc2sn(CN3CCN(C(=O)C4CC4)CC3)c(=O)c2c1C [LC-59] |  | 59 | 59.20 |  | 100 | 10600 |  |  | 100 (≈ 34.7 mg/mL) | 10600 | 8.2 | 8 |  |
| O=c1c2ccccc2sn1CN1CC[C@@H](O)C1 [LC-65, (R)-2-((3-hydroxypyrrolidin-1-yl)methyl)benzo[d]isothiazol-3(2H)-one] |  | 77 | 77.01 |  | 100 | 456 |  |  | 100 (≈ 25 mg/mL) | 456 | 162 | 162 |  |
| O=c1c2cccc(F)c2sn1CN1CCN(Cn2sc3c(F)cccc3c2=O)CC1 [LC-69, 2,2′-(piperazine-1,4-diylbis(methylene))bis(7-fluorobenzo[d]isothiazol-3(2H)-one)] |  | 46 | 45.50 |  |  | 1970 |  |  |  | 1970 | 700 | 700 | Solubility ([6]; NMP (N-Methyl-2-Pyrrolidine)): 5 mM (≈ 2.24 mg/mL); Solubility ([6]; NMP): 5 mM (≈ 2.24 mg/mL); Kd [3, 14]: 700 nM |
| Cc1cc(C)c2c(=O)n(CN3CCN(Cn4sc5nc(C)cc(C)c5c4=O)CC3)sc2n1 [LC-70, 2,2′-(piperazine-1,4-diylbis(methylene))bis(4,6-dimethylisothiazolo[5,4-b]pyridin-3(2H)-one)] |  | 59 | 59.18 |  |  | 3090 |  |  |  | 3090 |  | 3800 | Solubility ([6]; NMP (N-Methyl-2-Pyrrolidine)): 5 mM (≈ 2.35 mg/mL); Solubility ([6]; NMP): 5 mM (≈ 2.35 mg/mL); Kd [3, 14]: 3800 nM; Kd ([3]; read-out: ITC KD): 3800 nM |
| O=c1c2cccnc2sn1CO [LC-73, 2-(hydroxymethyl)isothiazolo[5,4-b]pyridin-3(2H)-one] |  | 63 | 63.16 |  | 100 | 2480 |  |  | 100 (≈ 18.2 mg/mL) | 2480 |  |  | Kd ([3]; FIG. 1, PDI A1a titrated into compound in DMSO, read-out: Kd): 9.8 nM; Kd ([3]; ITC assay, read-out: KD): 10 nM |

Reference: patent publication US20220380383A1, “NEUROPROTECTIVE PDI MODULATING SMALL MOLECULES AND METHODS OF USE THEREOF” (THE TRUSTEES OF COLUMBIA UNIVERSITY IN THE CITY OF NEW YORK, priority 2018, published 2022)
